Data: patent US6017878A (McGill University, priority 1994, dated 2000)
Where “and” joins values, the source holds several entries; their conditions need not be identical. Equal values may be shown once. Entries after “also recorded” stand apart in the source; their conditions may differ.

Legend:
[1] = system: NGF induced neurite outgrowth in PC12 cells; assay: NGF induced neurite outgrowth assay in PC12 cells; format: cell-based, rat; details: analog ~10 μM, 50 ng/ml NGF; for INHIBITION OF NEURITE OUTGROWTH (1): PC12 cells, arbitrary units by comparison with NGF dose response curves
Procedure: (§1) All cells were cultured as described. PC12 pheochromocytoma cells expressing rat p140 trkA and p75 LNGFR (American Type Culture Collection, 7th edition, 1992, Catalog of cell lines and hybridomas, R. Hay Editor, accession No. CRL 1721) were grown in DMEM supplemented with 20% Fetal Bovine Serum (FBS), 10% Horse serum, and antibiotics. PC12 cells used for experiments were grown on collagen coated dishes. The NIH-3T3 fibroblast transfectants R7 (p75 and trkA double transfectant) and E25 (trkA transfectant) (Jing, S. et al. (1992) Neuron, 9: 1067-1079; kindly provided by Dr. Mariano Barbacid, Bristol-Meyers-Squibb, NJ) were grown in RPMI media supplemented with 5% FBS and antibiotics and the appropriate drug selection.
(§2) Cells without growth factor added served as baseline, whereas cells with growth factor but without analog added were used for maximum neurite outgrowth determination. All analogs were tested in at least three separate assays from three different synthesis. Samples were coded and analysis were performed blind.
(§3) Representative results for 3 different analogs are shown. For a summary and complete list of the results from these biological tests see Table II.
Significant inhibition is indicated by +++.

[2] = system: bFGF mediated neurite outgrowth in PC12 cells; assay: bFGF mediated neurite outgrowth in PC12 cells (specificity control); format: cell-based, rat; details: analog ~10 μM, 50 ng/ml bFGF
Procedure: as §2, §3

[3] = target: T1, R7 (trkA-p75), NIH-3T3 p75 and trkA double transfectant (Homo sapiens, UniProt P04629); assay: 125I-NGF binding to R7 transfectants; details: analog ~40 μM; for % INHIBITION of 125I-NGF binding, R7 (trkA-p75): mean ±2 SEM
T1 construct: expressed in transfected cells; host or cells: NIH-3T3 mouse fibroblasts (R7), from Dr. Mariano Barbacid; Jing et al. 1992
Procedure: as §1
(§4) Assays were performed >4 times, each from at least three different synthesis (inhibitory analogs) or 1-3 times each from 2 different synthesis (non-inhibitory analogs).
(§5) Analogs were used at a concentration of ^~ 40 μM.
(§6) Data shown represents an average percent inhibition of binding ±2 standard errors of the mean (2 SEM). […] NT=not tested. (*) assayed only once.
(§7) Percent inhibition was determined by applying the following formula: [formula]

[4] = target: T2, E25 (trkA), trkA receptor expressing fibroblast transfectants (Homo sapiens, UniProt P04629); assay: 125I-NGF binding to E25 transfectants, with dose response and saturation studies; details: for % INHIBITION of 125I-NGF binding, E25 (trkA) / effect on 125I-NGF binding to E25 cells (in words): analog ~40 μM; for % INHIBITION of 125I-NGF binding, E25 (trkA): mean ±2 SEM
T2 construct: expressed in transfected cells; host or cells: NIH-3T3 mouse fibroblasts (E25), from Dr. Mariano Barbacid; Jing et al. 1992
Procedure: as §1, §4, §5, §6, §7
Saturation binding assays were performed with trkA receptor expressing E25 cells as described above.

[5] = target: T3, surface trkA receptors on E25 cells (Homo sapiens, UniProt P04629); assay: trkA receptor internalization in E25 cells (FACScan); format: cell-based; details: 10 μM, 30 min, 37° C. permissive vs 4° C. 0.05% sodium azide
T3 construct: expressed in transfected cells; host or cells: NIH-3T3 mouse fibroblasts (E25), from Dr. Mariano Barbacid; Jing et al. 1992
From the text: Expression of surface trkA receptors was quantified by FACScan analysis.
FIG. 4A illustrates FACScan profiles using an anti-trkA specific monoclonal antibody versus control mouse IgG.
FIG. 4B is a graph of the analysis of the % reduction of cell surface mean fluorescence channel (MFC, using the Lysis (B.D.) software) after receptor internalization.

PC12 cells = assay: Toxicity control: cell death of PC12 cells after culture with the compounds; format: cell-based, rat
PC12 (trkA-p75) = target: T4, PC12 (trkA-p75) (Rattus norvegicus, UniProt P35739); assay: 125I-NGF binding to PC12 cells; details: mean ±2 SEM
T4 construct: PC12 pheochromocytoma cells expressing rat p140 trkA and p75 LNGFR; host or cells: PC12 rat pheochromocytoma cells
Procedure: as §1
Analogs were tested for their ability to affect binding of ^125 I-NGF (73.1 μCi/μg NEN, DuPont). […] After 15 min, ^125 I-NGF was added to a final concentration of 0.4-2 nM (^~ 40,000 cpm) and the mixtures were further incubated for 40 min at 4° C. Cells were then washed in binding buffer, pelleted, and cell-associated ^125 I-NGF was determined. […] Assays were performed >4 times, each from at least three different synthesis (inhibitory analogs) or 1-3 times each from 2 different synthesis (non-inhibitory analogs). Receptor saturation experiments were similarly performed with increasing concentrations of ^125 I-NGF ligand and a constant dose of inhibitor.
To determine the mechanism of biological antagonistic activity by the cyclic analogs, ^125 I-NGF binding measurements were performed with cell lines expressing both p75 and trkA receptors (PC12 cells and R7 transfectants) or only trkA receptors (E25 transfectants) (Table III). Analogs were used at a concentration of ^~ 40 μM.
as §6, §7

[6] = target: T2, E25 (trkA), trkA receptor expressing fibroblast transfectants; assay: 125I-NGF binding to E25 transfectants, with dose response and saturation studies; details: dose response 0.4 μM to 200 μM analog, constant 200 pM 125I-NGF; read-out: IC50, inhibition of 125I-NGF binding
NGF biological activity = details: Longo et al. 1990; cited from earlier work

T2 sequence (P04629 33-790 isoform P04629-2 limits assumed): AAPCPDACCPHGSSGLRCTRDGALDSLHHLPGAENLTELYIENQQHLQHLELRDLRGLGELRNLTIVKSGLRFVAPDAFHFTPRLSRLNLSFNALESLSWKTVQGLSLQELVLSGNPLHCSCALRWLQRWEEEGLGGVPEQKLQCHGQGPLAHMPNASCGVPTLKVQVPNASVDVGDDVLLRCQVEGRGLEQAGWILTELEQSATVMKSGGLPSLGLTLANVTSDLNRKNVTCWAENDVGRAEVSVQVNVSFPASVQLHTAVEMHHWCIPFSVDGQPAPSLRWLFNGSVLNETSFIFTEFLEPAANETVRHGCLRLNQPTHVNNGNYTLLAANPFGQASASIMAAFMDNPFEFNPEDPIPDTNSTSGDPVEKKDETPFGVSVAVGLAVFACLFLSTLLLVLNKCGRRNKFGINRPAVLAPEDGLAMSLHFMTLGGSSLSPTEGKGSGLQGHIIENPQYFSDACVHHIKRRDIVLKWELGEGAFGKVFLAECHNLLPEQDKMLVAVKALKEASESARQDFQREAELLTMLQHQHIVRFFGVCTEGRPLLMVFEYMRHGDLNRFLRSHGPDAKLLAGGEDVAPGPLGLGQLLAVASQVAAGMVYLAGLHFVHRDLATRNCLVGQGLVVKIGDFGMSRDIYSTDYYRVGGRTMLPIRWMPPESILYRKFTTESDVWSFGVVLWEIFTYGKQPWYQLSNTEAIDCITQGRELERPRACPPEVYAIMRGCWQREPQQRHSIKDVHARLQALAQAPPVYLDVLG
T4 sequence (P35739 33-799): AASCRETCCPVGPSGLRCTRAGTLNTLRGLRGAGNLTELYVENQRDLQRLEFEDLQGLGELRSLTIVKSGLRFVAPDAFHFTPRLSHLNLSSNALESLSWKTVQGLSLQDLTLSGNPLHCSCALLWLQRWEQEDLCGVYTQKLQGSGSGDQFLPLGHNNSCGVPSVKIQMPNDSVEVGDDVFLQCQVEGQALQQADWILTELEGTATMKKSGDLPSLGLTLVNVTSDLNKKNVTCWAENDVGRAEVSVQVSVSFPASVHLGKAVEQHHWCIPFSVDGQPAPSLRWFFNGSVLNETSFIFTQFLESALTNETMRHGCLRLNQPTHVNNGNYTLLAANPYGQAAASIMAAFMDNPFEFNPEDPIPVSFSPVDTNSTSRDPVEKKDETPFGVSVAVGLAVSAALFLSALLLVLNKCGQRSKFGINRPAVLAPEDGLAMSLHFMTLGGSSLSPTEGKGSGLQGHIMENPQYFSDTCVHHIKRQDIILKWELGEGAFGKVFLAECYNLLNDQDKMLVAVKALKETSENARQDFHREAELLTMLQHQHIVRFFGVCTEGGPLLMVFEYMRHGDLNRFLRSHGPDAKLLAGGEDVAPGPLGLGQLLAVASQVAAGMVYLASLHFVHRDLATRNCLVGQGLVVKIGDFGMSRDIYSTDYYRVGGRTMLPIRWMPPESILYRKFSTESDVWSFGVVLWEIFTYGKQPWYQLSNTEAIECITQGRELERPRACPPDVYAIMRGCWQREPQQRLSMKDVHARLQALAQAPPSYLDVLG
T1 sequence (P04629 33-796): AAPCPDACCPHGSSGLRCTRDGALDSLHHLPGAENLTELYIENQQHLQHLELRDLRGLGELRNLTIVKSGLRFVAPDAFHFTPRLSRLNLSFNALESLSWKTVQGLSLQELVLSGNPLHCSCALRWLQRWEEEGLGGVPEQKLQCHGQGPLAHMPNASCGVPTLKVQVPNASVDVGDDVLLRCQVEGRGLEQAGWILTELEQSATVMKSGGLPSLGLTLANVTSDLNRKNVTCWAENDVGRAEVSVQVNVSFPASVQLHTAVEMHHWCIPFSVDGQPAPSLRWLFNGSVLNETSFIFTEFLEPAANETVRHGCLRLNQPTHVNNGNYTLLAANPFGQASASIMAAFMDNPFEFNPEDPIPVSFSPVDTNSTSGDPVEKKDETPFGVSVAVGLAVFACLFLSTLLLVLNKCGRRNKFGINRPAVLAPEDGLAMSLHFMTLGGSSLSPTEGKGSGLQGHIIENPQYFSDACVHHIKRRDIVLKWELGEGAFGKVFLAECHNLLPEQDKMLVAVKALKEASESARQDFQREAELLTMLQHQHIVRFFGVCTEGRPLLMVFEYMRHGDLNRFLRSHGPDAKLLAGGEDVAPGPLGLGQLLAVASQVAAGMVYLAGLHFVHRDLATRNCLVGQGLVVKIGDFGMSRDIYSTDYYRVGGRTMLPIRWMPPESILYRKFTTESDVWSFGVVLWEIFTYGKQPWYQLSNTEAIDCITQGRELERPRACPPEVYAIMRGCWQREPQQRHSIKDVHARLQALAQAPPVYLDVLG
T3 sequence (P04629 33-790 isoform P04629-2 limits assumed): as the sequence (P04629 33-790 isoform P04629-2 limits assumed) above

## Fmoc-X C T D E K Q A C X [C(92-97)]
[1]
  effect on NGF mediated PC12 neurite outgrowth (in words): significantly inhibited
  INHIBITION OF NEURITE OUTGROWTH (1): +++ (equivalent to 6.25 ng/ml NGF)
[2]
  effect on bFGF mediated PC12 neurite outgrowth (in words): did not affect
[3]; 40 µM
  % INHIBITION of 125I-NGF binding, R7 (trkA-p75): 24.3% and 24.3 ± 9.2%
[4]; 40 µM
  % INHIBITION of 125I-NGF binding, E25 (trkA): 64.9% and 64.9 ± 12.4%
[5]
  disappearance of surface trkA receptors (receptor internalization): induced the disappearance of surface trkA receptors at the permissive conditions only

## Fmoc-X C N I N N S V C X [C(43-48)]
[1]
  effect on NGF mediated PC12 neurite outgrowth (in words): significantly inhibited; also recorded: effective in inhibiting biological assays in PC12 cells
  INHIBITION OF NEURITE OUTGROWTH (1): +++ (equivalent to 6.25 ng/ml NGF)
[2]
  effect on bFGF mediated PC12 neurite outgrowth (in words): did not affect; also recorded: bFGF was not affected
[3]
  % INHIBITION of 125I-NGF binding, R7 (trkA-p75): 5.0%
[4]
  effect on 125I-NGF binding to E25 cells (in words): did not inhibit; also recorded: without being effective at all in binding assays in E25 cells
  % INHIBITION of 125I-NGF binding, E25 (trkA): -2.7 ± 8.5%

## Fmoc-X C S N P V E S C X [C(61-66)]
PC12 cells
  cell death / necrosis after culture with the compounds: did cause necrosis

## A N V S R S P E G (ANVSRSPEG) [R(59-67), randomized 59-67 control]
[1]
  INHIBITION OF NEURITE OUTGROWTH (1): + (equivalent to 25 ng/ml NGF)

## R A S N P V E S G (RASNPVESG) [L(59-67), linear 59-67 control]
[1]
  INHIBITION OF NEURITE OUTGROWTH (1): + (equivalent to 25 ng/ml NGF)
[4]
  % INHIBITION of 125I-NGF binding, E25 (trkA): -9.5 ± 7.5%

## Fmoc-X C I N N S V C X [C(44-48)]
[1]
  effect on NGF mediated PC12 neurite outgrowth (in words): significantly inhibited; also recorded: effective in inhibiting biological assays in PC12 cells
  INHIBITION OF NEURITE OUTGROWTH (1): +++ (equivalent to 6.25 ng/ml NGF)
[2]
  effect on bFGF mediated PC12 neurite outgrowth (in words): did not affect
[4]
  effect on 125I-NGF binding to E25 cells (in words): did not inhibit; also recorded: without being effective at all in binding assays in E25 cells
  % INHIBITION of 125I-NGF binding, E25 (trkA): -12.5 ± 5.4%

## Fmoc-X C A S N P V E S C X [C(60-66)]
[1]
  INHIBITION OF NEURITE OUTGROWTH (1): ++ (equivalent to 12.5 ng/ml NGF)

## Fmoc-X C N I N N S C X [C(43-47)]
[1]
  INHIBITION OF NEURITE OUTGROWTH (1): + (equivalent to 25 ng/ml NGF)

## X C A S N P V E C [C(60-65)]
[1]
  INHIBITION OF NEURITE OUTGROWTH (1): ++ (equivalent to 12.5 ng/ml NGF)

## Fmoc-X C T D E K Q C X [C(92-96)]
[1]
  effect on NGF mediated PC12 neurite outgrowth (in words): significantly inhibited
[2]
  effect on bFGF mediated PC12 neurite outgrowth (in words): did not affect
PC12 (trkA-p75); analog ~40 μM
  % INHIBITION of 125I-NGF binding, PC12 (trkA-p75): 86.4 ± 10.4%
[3]; 40 µM
  % INHIBITION of 125I-NGF binding, R7 (trkA-p75): 51.1% and 51.1 ± 0.7%
[4]; 45 μM analog, 125I-NGF 0-1.13 nM, E25 cells
  nature of inhibition in saturation analysis: competitive nature
[4]; 40 µM
  % INHIBITION of 125I-NGF binding, E25 (trkA): 71.3% and 71.3 ± 13.5%
[6]
  IC50: 23.5 ± 16 µM

## A T D I K G K E V (ATDIKGKEV) [L(28-36), linear 28-36 control]
PC12 (trkA-p75); analog ~40 μM
  % INHIBITION of 125I-NGF binding, PC12 (trkA-p75): 5.0%
[3]
  % INHIBITION of 125I-NGF binding, R7 (trkA-p75): -11.3%
[4]
  % INHIBITION of 125I-NGF binding, E25 (trkA): 6.4 ± 12.4%

## N N S F V I N V (NNSFVINV) [R(42-49), randomized 42-49 control]
[1]
  INHIBITION OF NEURITE OUTGROWTH (1): + (equivalent to 25 ng/ml NGF)

## peptide with sequences from NGF residues 23-35: prior-art linear peptide of Longo et al. with sequences from NGF residues 23-35 (GDKTTATDIKGKE; UniProt P01138 144-156, looked up, fragment)
NGF biological activity
  concentration of peptide at which inhibition of NGF biological activity occurred: 2 mM

## Fmoc-X C D I K G K E C X [C(30-35)]
[1]
  effect on NGF mediated PC12 neurite outgrowth (in words): did not affect
[2]
  effect on bFGF mediated PC12 neurite outgrowth (in words): did not affect
[3]
  effect on 125I-NGF binding to R7 cells (in words): did not affect NGF binding to R7 cells
  % INHIBITION of 125I-NGF binding, R7 (trkA-p75): 0.44 ± 0.6%
[4]
  effect on 125I-NGF binding to E25 cells (in words): inhibited NGF binding to E25 cells
  % INHIBITION of 125I-NGF binding, E25 (trkA): 51.1 ± 0.7%

## Fmoc-X C K G K E C X [C(32-35)]
[1]
  INHIBITION OF NEURITE OUTGROWTH (1): ++ (equivalent to 12.5 ng/ml NGF)
PC12 (trkA-p75); analog ~40 μM
  % INHIBITION of 125I-NGF binding, PC12 (trkA-p75): 9.0%
[3]
  effect on 125I-NGF binding to R7 cells (in words): did not affect NGF binding to R7 cells
  % INHIBITION of 125I-NGF binding, R7 (trkA-p75): -4.5 ± 6.5%
[4]
  effect on 125I-NGF binding to E25 cells (in words): inhibited NGF binding to E25 cells
  % INHIBITION of 125I-NGF binding, E25 (trkA): 30.7 ± 10.5%

## Fmoc-X C T A I K G K E C X [C(29-35ΔD30A)]
PC12 cells
  cell death / necrosis after culture with the compounds: did cause necrosis

## Nerve Growth Factor [NGF]
PC12 (trkA-p75); 0.1 uM unlabeled NGF
  % INHIBITION of 125I-NGF binding, PC12 (trkA-p75): 69.5 ± 4.5%

## Fmoc-X C I K G K E C X [C(31-35)]
[1]
  INHIBITION OF NEURITE OUTGROWTH (1): ++ (equivalent to 12.5 ng/ml NGF)

## T T D E K Q A A W (TTDEKQAAW) [L(91-99), linear 91-99 control]
[1]
  INHIBITION OF NEURITE OUTGROWTH (1): + (equivalent to 25 ng/ml NGF)
[3]
  % INHIBITION of 125I-NGF binding, R7 (trkA-p75): 3.8 ± 1.0%
[4]
  effect on 125I-NGF binding to E25 cells (in words): None of the other cyclic, linear or randomized analogs had significant effects
  % INHIBITION of 125I-NGF binding, E25 (trkA): 2.1 ± 8.5%

## V N I N N S V F (VNINNSVF) [L(42-49), linear 42-49 control]
[3]
  % INHIBITION of 125I-NGF binding, R7 (trkA-p75): 8.0%
[4]
  % INHIBITION of 125I-NGF binding, E25 (trkA): -16.0 ± 15.1%
